{"source": "patent US11800869B2", "about": "“Use of 6-oxo-1,4,5,6-tetrahydropyridazine-3-carboxylic acid, 1-methyl 6-oxo-1,4,5,6-tetrahydropyridazine-3-carboxylic acid and 1-alkyl-6-oxo-1,4,5,6-tetrahydropyridazine-3-carboxylic acid for improving growth performance in plants” (Advanced Crop Chem LLP, priority 2020, dated 2023)", "assay_type_in_all_cases": "in vivo", "key": {"Wheat": {"tested_on": "Wheat", "assay": "Foliar treatment dose series, root and shoot fresh weight, wheat (Example 8)", "settings": "35 days post treatment; for Root, FWt: dose 0: 1.8; for Shoot, FWt: dose 0: 3.2", "description": "Corn and wheat plants were given a foliar treatment […] (as described in Example 2) with 6-oxo-1,4,5,6 tetrahydropyridazine-3-carboxylic acid (THP) and then assessed for root and shoot biomass. Three treatment dosages were applied (Table 2). Plants were grown in a greenhouse with a diurnal cycle of 55-75F with ambient light. The plants were grown in a coarse river sand in 4″ pots with 0.5 g of Osmacote/pot. The mean root and shoot fresh weights were assessed at 35 days post treatment."}, "Wheat seeds": {"tested_on": "Wheat seeds", "assay": "Wheat seed treatment, germination paper, shoot and root fresh weights (Example 9)", "settings": "pH 5.7-5.8, germination paper 75-85° F; for Shoot fresh weight: Control 27.4; for Roots fresh weight: Control 29.1", "description": "Wheat seeds were treated with 6-oxo-1,4,5,6 tetrahydropyridazine-3-carboxylic acid and the shoot and root fresh weights as shown in Table 1. Shoot and root fresh weights at this stage are components of early seedling emergence which is important for early establishment of a vigorous and productive crop. Wheat seeds were treated with a solution of either 0.1 mM or 0.01 mM 6-oxo-1,4,5,6 tetrahydropyridazine-3-carboxylic acid in an aqueous solution at pH 5.7-5.8. The seeds were placed on moist germination paper and allowed to germinate at 75-85° F. The control seeds were imbibed in aqueous solution containing only the soft soap and glycerol."}, "field grown wheat": {"tested_on": "field grown wheat", "assay": "Field grown wheat plots, foliar treatment, yield (Example 12)", "settings": "foliar treatment at Zadocks GS 30", "description": "Field grown wheat plants (Var: AWC 13) were given foliar treatment at Zadoks GS 25-26 (FIG. 1) of 6-oxo-1,4,5,6 tetrahydropyridazine-3-carboxylic acid (THP) or 1-methyl 6-oxo-1,4,5,6 tetrahydropyridazine-3-carboxylic acid (MTHP) both at 100 g in 200 L water plus 0.25% Nouryon wetter. Plants were grown under standard UK wheat growing cultural practice (https://andb.org.uk/wheatgg). Yield was assessed at harvest.\nNine field grown wheat plots (20 m^2) were established. In each plot, the area was split into two and one half treated with 6-oxo-1,4,5,6 tetrahydropyridazine-3-carboxylic acid (THP) to assess for effects on yield. Plants were treated at Zadocks GS 30 as described in example 6 under standard cultural practices. The average yield response compared to the untreated plants across all sites was 0.596 tons per hectare."}, "[1]": {"tested_on": "Winter wheat variety AWC 13", "assay": "Wheat seed treatment, field grown, root biomass (Example 14)", "settings": "untreated 0.66", "description": "Wheat seeds were treated with 6-oxo-1,4,5,6 tetrahydropyridizine-3-carboxylic acid treated plants to examine the impact on shoot and root biomass for field grown plants. Winter wheat variety AWC 13 seeds were treated with 6-oxo-1,4,5,6-tetrahydropyridazine-3-carboxylic acid and field grown. The plants from seeds treated with 6-oxo-1,4,5,6 tetrahydropyridazine-3-carboxylic acid had larger root biomass (0.85 g dry weight/plant) compared with plants from untreated seeds (0.66 g dry weight/plant)."}, "[2]": {"tested_on": "Wheat seeds (Var. VitPro)", "assay": "Wheat seed treatment, leaf wilting under drought (Example 16)", "settings": "Drought stress; for Wilted leaves: 0 mM: 40; for Total leaves: 0 mM: 47; for % Wilted leaves: 0 mM: 85%", "description": "Wheat seeds were treated with 6-oxo-1,4,5,6 tetrahydropyridazine-3-carboxylic and leaf wilting was tracked to examine the resistance to drought in the seedlings as shown in Table 6. Wheat seeds (Var. VitPro) were treated with an aqueous solution of either 0 mM, 1 mM, 0.5 mM, 0.1 mM or 0.01 mM 6-oxo-1,4,5,6 tetrahydropyridazine-3-carboxylic acid at pH 5.7-5.8. The 0 mM 6-oxo-1,4,5,6-tetrahydropyridizine-3-carboxylic acid seeds were imbibed in aqueous solution containing only the soft soap and glycerol. The plants were allowed to grow to Zadoks GS13 (FIG. 1) when water was withheld until plants in all of the treatments had wilted leaves."}, "[3]": {"tested_on": "wheat (Var. VitPro) seedlings", "assay": "Foliar treatment of wheat, relative water content under drought stress (Example 17)", "settings": "drought stressed, flag leaves, untreated drought stressed 35.8%", "description": "Wheat seedlings were given foliar treatments with a range of concentrations of 6-oxo-1,4,5,6 tetrahydropyridazine-3-carboxylic acid and the seedlings were grown to near maturity and drought stressed. Their relative water contents were determined to examine the effectiveness of different concentrations of 6-oxo-1,4,5,6-tetrahydropyridizine-3-carboxylic acid in conferring drought resistance.\nSets of wheat (Var. VitPro) seedlings were given foliar treatments of 6-oxo-1,4,5,6 tetrahydropyridazine-3-carboxylic acid at concentrations of 1 mM or 0.1 mM in aqueous solutions. Two treatments were made; one at Zaddok GS 12(FIG. 1) and a second at Zadoks GS 14 (FIG. 1) and the plants grown until the first flag leaf was fully developed on the control plants. The treated plants and one set of controls were then drought stressed and the relative water content was determined for each set of plants. There were two sets of control plants; one was maintained with normal watering and a second control was drought stressed along with the treated plants. When each of the plants had at least two wilted leaves the water content of the drought stressed plants was determined relative to that of the normal, well-watered control plants. The flag leaves were harvested and used to determine the relative water content."}, "[4]": {"settings": "foliar dose 50 g/ha in 200 L/ha"}, "[5]": {"settings": "foliar dose 100 g/ha in 200 L/ha"}, "[6]": {"settings": "foliar dose 200 g/ha in 200 L/ha"}}, "note": "Marks after values point to notes of the source that are not given here."}
{"smiles": "O=C1CCC(C(=O)O)=NN1", "note": "[THP, 6-oxo-1,4,5,6 tetrahydropyridazine-3-carboxylic acid]", "values": [{"measurement": "Root, FWt", "setting": "Wheat; [4]", "value": 2.1, "unit": "g"}, {"measurement": "Shoot, FWt", "setting": "Wheat; [4]", "value": 4.4, "unit": "g"}, {"measurement": "Root, FWt", "setting": "Wheat; [5]", "value": 1.9, "unit": "g"}, {"measurement": "Shoot, FWt", "setting": "Wheat; [5]", "value": 5.2, "unit": "g"}, {"measurement": "Root, FWt", "setting": "Wheat; [6]", "value": 2.7, "unit": "g"}, {"measurement": "Shoot, FWt", "setting": "Wheat; [6]", "value": 5.8, "unit": "g"}, {"measurement": "Shoot fresh weight", "setting": "Wheat seeds; seed treatment 0.01 mM", "value": 44.7, "unit": "mg"}, {"measurement": "Roots fresh weight", "setting": "Wheat seeds; seed treatment 0.01 mM", "value": 48.1, "unit": "mg"}, {"measurement": "Shoot fresh weight", "setting": "Wheat seeds; seed treatment 0.1 mM", "value": 42.1, "unit": "mg"}, {"measurement": "Roots fresh weight", "setting": "Wheat seeds; seed treatment 0.1 mM", "value": 43.8, "unit": "mg"}, {"measurement": "Yield as Percent Increase over Untreated", "setting": "field grown wheat; Field 1", "value": "6.25* %"}, {"measurement": "Yield as Percent Increase over Untreated", "setting": "field grown wheat; Field 2", "value": "8.7* %"}, {"measurement": "Yield as Percent Increase over Untreated", "setting": "field grown wheat; Field 3", "value": "−0.3", "unit": "%"}, {"measurement": "Yield as Percent Increase over Untreated", "setting": "field grown wheat; Field 4", "value": "13.9* %"}, {"measurement": "Yield as Percent Increase over Untreated", "setting": "field grown wheat; Field 5", "value": 3.0, "unit": "%"}, {"measurement": "Yield as Percent Increase over Untreated", "setting": "field grown wheat; Field 6", "value": 3.3, "unit": "%"}, {"measurement": "Yield as Percent Increase over Untreated", "setting": "field grown wheat; Field 7", "value": 6.5, "unit": "%"}, {"measurement": "Yield as Percent Increase over Untreated", "setting": "field grown wheat; Field 8", "value": "9.8* %"}, {"measurement": "Yield as Percent Increase over Untreated", "setting": "field grown wheat; Field 9", "value": "8.1* %"}, {"measurement": "average yield response compared to the untreated plants across all sites", "setting": "field grown wheat; nine field plots", "value": 0.596, "unit": "tons per hectare"}, {"measurement": "root biomass", "setting": "[1]", "value": 0.85, "unit": "g dry weight/plant"}, {"measurement": "Wilted leaves", "setting": "[2]; seed treatment 0.1 mM", "value": 18}, {"measurement": "Total leaves", "setting": "[2]; seed treatment 0.1 mM", "value": 61}, {"measurement": "% Wilted leaves", "setting": "[2]; seed treatment 0.1 mM", "value": 30, "unit": "%"}, {"measurement": "Wilted leaves", "setting": "[2]; seed treatment 0.5 mM", "value": 14}, {"measurement": "Total leaves", "setting": "[2]; seed treatment 0.5 mM", "value": 64}, {"measurement": "% Wilted leaves", "setting": "[2]; seed treatment 0.5 mM", "value": 22, "unit": "%"}, {"measurement": "Wilted leaves", "setting": "[2]; seed treatment 1 mM", "value": 19}, {"measurement": "Total leaves", "setting": "[2]; seed treatment 1 mM", "value": 57}, {"measurement": "% Wilted leaves", "setting": "[2]; seed treatment 1 mM", "value": 33, "unit": "%"}, {"measurement": "water content retained, relative to normally watered plants", "setting": "[3]; two foliar treatments 0.1 mM", "value": 67.7, "unit": "%"}, {"measurement": "water content retained, relative to normally watered plants", "setting": "[3]; two foliar treatments 1 mM", "value": 68.3, "unit": "%"}]}
